Literature values in the PKSmart pharmacokinetics tables (Seal et al. 2025).

Assay: Lombardo, Berellini, Obach 2018, Drug Metab Dispos 46:1466, doi 10.1124/dmd.118.082966
Settings: human; for MRT / Vd / clearance / half-life: in vivo, iv; for fraction unbound: plasma

## CC(C)NCC(O)c1ccc(O)c(O)c1 (stereo not given)
  MRT: 0.43 h
  Vd: 1.5 L/kg
  clearance: 56 mL/min/kg
  half-life: 0.41 h
  fraction unbound: 0.71

## CC1(C)S[C@@H]2C(/N=C/N3CCCCCC3)C(=O)N2C1C(=O)O (stereo not given in full)
  MRT: 1 h
  Vd: 0.37 L/kg
  clearance: 6.3 mL/min/kg
  half-life: 1.1 h
  fraction unbound: 0.9

## CCC1=C[C@@H]2CN(C1)Cc1c([nH]c3ccccc13)[C@@](C(=O)OC)(c1cc3c(cc1OC)N(C)[C@H]1[C@@](O)(C(=O)OC)[C@H](OC(C)=O)[C@]4(CC)C=CCN5CC[C@]31[C@@H]54)C2
  MRT: 18 h
  Vd: 23 L/kg
  clearance: 20 mL/min/kg
  half-life: 26 h
  fraction unbound: 0.87

## CC[C@]1(O)C[C@@H]2CN(CCc3c([nH]c4ccccc34)[C@@](C(=O)OC)(c3cc4c(cc3OC)N(C=O)[C@H]3[C@@](O)(C(=O)OC)[C@H](OC(C)=O)[C@]5(CC)C=CCN6CC[C@]43[C@@H]65)C2)C1
  MRT: 20 h
  Vd: 2.4 L/kg
  clearance: 2 mL/min/kg
  half-life: 23 h

## Cc1[nH]c(=O)c(C#N)cc1-c1ccc2nccn2c1
  MRT: 0.97 h
  Vd: 0.64 L/kg
  clearance: 11 mL/min/kg
  half-life: 1.13 h

## Nc1nc(F)nc2c1ncn2[C@@H]1O[C@H](CO)[C@@H](O)[C@@H]1O
  MRT: 12 h
  Vd: 2.2 L/kg
  clearance: 3.2 mL/min/kg
  half-life: 11 h
  fraction unbound: 0.76

## O=C(/C=C/c1ccc(O)c(O)c1)O[C@@H]1C[C@](OC(=O)/C=C/c2ccc(O)c(O)c2)(C(=O)O)C[C@@H](O)[C@H]1O
  MRT: 1.5 h
  Vd: 0.79 L/kg
  clearance: 8.7 mL/min/kg
  half-life: 1.37 h

## CN/C(=N\CCSCc1nc[nH]c1C)NC#N
  MRT: 2.5 h
  Vd: 1.2 L/kg
  clearance: 8.1 mL/min/kg
  half-life: 2.2 h

## O=NNc1cnccn1
  MRT: 0.29 h
  Vd: 0.31 L/kg
  clearance: 15.1 mL/min/kg
  half-life: 0.38 h

## Cc1cnc(NCCCN(C)C)c2c1[nH]c1ccc3cc(O)ccc3c12
  MRT: 11 h
  Vd: 11 L/kg
  clearance: 18 mL/min/kg
  half-life: 19 h

## NC(=O)CN1CC(O)CC1=O (stereo not given)
  MRT: 4.9 h
  Vd: 0.55 L/kg
  clearance: 1.8 mL/min/kg
  half-life: 7.5 h

## Cc1cc(Nc2cc(N3CCN(C)CC3)nc(Sc3ccc(NC(=O)C4CC4)cc3)n2)n[nH]1
  MRT: 4.5 h
  Vd: 5.1 L/kg
  clearance: 18.4 mL/min/kg
  half-life: 8.4 h

## C[C@@H]1C[C@H]2[C@H]3CC=C4CC(=O)C=C[C@]4(C)[C@@]3(Cl)[C@@H](O)C[C@]2(C)[C@@]1(OC(=O)c1ccco1)C(=O)CCl
  MRT: 2.9 h
  Vd: 2.2 L/kg
  clearance: 12.7 mL/min/kg
  half-life: 4.4 h

## COc1cc(NC(C)CCCN)c2ncccc2c1 (stereo not given)
  MRT: 11 h
  Vd: 4 L/kg
  clearance: 5.8 mL/min/kg
  half-life: 7.1 h

## C=CC[N+]1([C@H]2C[C@H]3[C@@H]4CC[C@H]5C[C@H](O)[C@@H](N6CCOCC6)C[C@]5(C)[C@H]4CC[C@]3(C)[C@H]2OC(C)=O)CCCC1
  MRT: 0.95 h
  Vd: 0.21 L/kg
  clearance: 3.7 mL/min/kg
  half-life: 1.6 h
  fraction unbound: 0.54

## COP(=O)(c1cc(C)cc(/C=C/C#N)c1)c1c(C(N)=O)[nH]c2ccc(Cl)c(F)c12 (stereo not given)
  MRT: 8.9 h
  Vd: 0.97 L/kg
  clearance: 1.83 mL/min/kg
  half-life: 7.4 h

## NCCNc1ccc(NCCN)c2c1C(=O)c1ccncc1C2=O
  MRT: 8.9 h
  Vd: 10.1 L/kg
  clearance: 17.7 mL/min/kg
  half-life: 13.4 h

## CS(=O)(=O)c1ccc([C@@H](O)[C@@H](COC(=O)CN)NC(=O)C(Cl)Cl)cc1
  MRT: 0.23 h
  Vd: 0.13 L/kg
  clearance: 9.6 mL/min/kg
  half-life: 0.28 h
  fraction unbound: 0.27

## CN(C)C(=O)Oc1cc(OC(=O)N(C)C)cc(C(O)CNC(C)(C)C)c1 (stereo not given)
  MRT: 1.4 h
  Vd: 1.6 L/kg
  clearance: 18 mL/min/kg
  half-life: 2.6 h

## Cc1nccn1CC1CCc2c(c3ccccc3n2C)C1=O (stereo not given)
  MRT: 5.2 h
  Vd: 1.8 L/kg
  clearance: 5.8 mL/min/kg
  half-life: 3.4 h

## CCc1cnn2c(NCc3ccc[n+]([O-])c3)cc(N3CCCC[C@H]3CCO)nc12
  MRT: 1.1 h
  Vd: 0.32 L/kg
  clearance: 4.65 mL/min/kg
  half-life: 2.1 h

## CN(CCC(=O)/C=C/c1ccc(O)cc1)CCc1ccc2c(c1)OCO2
  MRT: 0.05 h
  Vd: 2.13 L/kg
  clearance: 713 mL/min/kg
  half-life: 0.1 h

## Nc1nc2ccc(OC(F)(F)F)cc2s1
  MRT: 5.2 h
  Vd: 3.5 L/kg
  clearance: 11.3 mL/min/kg
  fraction unbound: 0.04

## C[C@@H](Oc1cc(-n2cnc3ccc(CN4CCN(C)CC4)cc32)sc1C(N)=O)c1ccccc1C(F)(F)F
  MRT: 10 h
  Vd: 12 L/kg
  clearance: 20 mL/min/kg
  half-life: 10.3 h

## CN(C)[C@@H](c1cccc(O)c1)[C@H]1CCCC[C@H]1O
  clearance: 2.2 mL/min/kg
  half-life: 3.85 h

## COc1cc(C(=O)C(=O)N2CCCCC2C(=O)OC(CCCc2cccnc2)CCCc2cccnc2)cc(OC)c1OC (stereo not given)
  MRT: 2.62 h
  Vd: 1.34 L/kg
  clearance: 8.5 mL/min/kg
  half-life: 1.1 h

## OCCN1CCN(CCCN2c3ccccc3Sc3ccc(Cl)cc32)CC1
  MRT: 11 h
  Vd: 18 L/kg
  clearance: 27 mL/min/kg
  half-life: 9.4 h
  fraction unbound: 0.07

## O=C1CN=C(c2ccccc2)c2cc([N+](=O)[O-])ccc2N1
  MRT: 33 h
  Vd: 1.7 L/kg
  clearance: 0.86 mL/min/kg
  half-life: 26 h

## O=C(O)C1O[C@@H](Oc2cc3oc(-c4ccc(O)cc4)cc(=O)c3c(O)c2O)[C@H](O)[C@@H](O)[C@@H]1O (stereo not given in full)
  MRT: 0.31 h
  Vd: 0.88 L/kg
  clearance: 46.6 mL/min/kg
  half-life: 1.18 h
  fraction unbound: 0.1

## CCCCCCCCCC=CCCC(=O)N=CC(=O)N[C@@H]1[C@@H](O)[C@@H](O)[C@@H](Nc2[nH]cnc3ncnc2-3)O[C@H]1[C@@H](O)CO
  MRT: 1.1 h
  Vd: 0.17 L/kg
  clearance: 2.7 mL/min/kg
  half-life: 1.3 h

## CNC(=O)Nc1c(OCCN2CCCC2)c(OC)c2occc2c1OC
  MRT: 4.2 h
  Vd: 0.8 L/kg
  clearance: 3.2 mL/min/kg
  half-life: 5 h

## CC(C)OC(=O)CCC/C=C/C[C@@H]1[C@@H](CC[C@@H](O)CCc2ccccc2)[C@H](O)C[C@@H]1O
  clearance: 6.7 mL/min/kg
  half-life: 0.28 h
  fraction unbound: 0.1

## O=C(O)CCCC[C@@H]1CCSS1
  MRT: 0.14 h
  Vd: 0.1 L/kg
  clearance: 11.5 mL/min/kg
  half-life: 0.21 h

## CN1CC[C@]23CCCC[C@H]2[C@H]1Cc1ccc(O)cc13
  MRT: 12.2 h
  Vd: 11.5 L/kg
  clearance: 15.7 mL/min/kg
  half-life: 13.5 h
  fraction unbound: 0.6

## O=C(O[C@H]1CN2CCC1CC2)N1CCc2ccccc2[C@@H]1c1ccccc1
  MRT: 65 h
  Vd: 8.2 L/kg
  half-life: 52 h

## CCCN(CCC)CCc1cccc2[nH]c(O)cc12
  MRT: 4.3 h
  Vd: 7.7 L/kg
  clearance: 30 mL/min/kg
  half-life: 6 h
  fraction unbound: 0.6
